Source: the supplement of paper PMC11061612

Tests used:
Test in all cases: combination Emax (second highest fraction inhibited in the dose matrix, 72 h); higher = more inhibition; extreme values may be limits of the assay
[1] = tested on: PF-382 (T-Lymphoblastic Leukemia)
Outline: (§1)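 Cell lines grown in DMEM/F12 or RPMI with 10% FBS were plated in 1536-well plates and held 24 hours at 37°C, 5% CO2 before 72 hours of exposure to two-drug dose matrices, with DMSO typically at 0.2%. CellTiter-Glo 2.0 luminescence gave viability, which was converted to inhibition. Vehicle wells were set to 0 and blank wells to 1. Combination Emax is the second-highest inhibition in the matrix, and Bliss excess is the observed combination effect minus the expected EA + EB − EA·EB, where EA and EB are the single-agent effects.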

[2] = tested on: NCI-H2347 (Lung Adenocarcinoma)
Outline: as §1

NB7 (Neuroblastoma) = tested on: NB7 (Neuroblastoma)
Outline: as §1

[3] = tested on: LOU-NH91 (Squamous Cell Lung Carcinoma)
Outline: as §1

[4] = tested on: ASH-3 (Thyroid Gland Carcinoma)
Outline: as §1

EW-18 (Ewing's Sarcoma) = tested on: EW-18 (Ewing's Sarcoma)
Outline: as §1

[5] = tested on: OVISE (Ovarian Carcinoma)
Outline: as §1

[6] = tested on: KU-19-19 (Bladder Carcinoma)
Outline: as §1

[7] = tested on: NCI-H322M (Lung Adenocarcinoma)
Outline: as §1

[8] = tested on: MFE-319 (Endometrial Carcinoma)
Outline: as §1

GOTO (Neuroblastoma) = tested on: GOTO (Neuroblastoma)
Outline: as §1

[9] = tested on: NCI-N87 (Gastric Carcinoma)
Outline: as §1

[10] = tested on: HSC-2 (Oral Cavity Carcinoma)
Outline: as §1

[11] = tested on: NCI-H2405 (Lung Adenocarcinoma)
Outline: as §1

[12] = tested on: OCUM-1 (Gastric Carcinoma)
Outline: as §1

RPMI-7951 (Melanoma) = tested on: RPMI-7951 (Melanoma)
Outline: as §1

[13] = tested on: JHH-7 (Hepatocellular Carcinoma)
Outline: as §1

[14] = tested on: TGBC11TKB (Gastric Carcinoma)
Outline: as §1

[15] = tested on: SCC-3 (B-Cell Non-Hodgkin's Lymphoma)
Outline: as §1

BT-20 (Breast Carcinoma) = tested on: BT-20 (Breast Carcinoma)
Outline: as §1

Compound | combination Emax [1] | combination Emax [2] | combination Emax (NB7 (Neuroblastoma)) | combination Emax [3] | combination Emax [4] | combination Emax (EW-18 (Ewing's Sarcoma)) | combination Emax [5] | combination Emax [6] | combination Emax [7] | combination Emax [8] | combination Emax (GOTO (Neuroblastoma)) | combination Emax [9] | combination Emax [10] | combination Emax [11] | combination Emax [12] | combination Emax (RPMI-7951 (Melanoma)) | combination Emax [13] | combination Emax [14] | combination Emax [15] | combination Emax (BT-20 (Breast Carcinoma))
COc1cc2ncnc(Nc3ccc(F)c(Cl)c3)c2cc1OCCCN1CCOCC1 [Gefitinib] + CC(C)n1c(=O)n(C)c2cnc3cc(F)c(-c4ccc(OCCCN5CCCCC5)nc4)cc3c21 [AZD1390] (first compound max 10 µM, 7x7, partner max 0.3 µM) | 0.323 | 0.0611 | 0.136 | 0.404 | 0.146 | 0.229 | 0.197 | 0.0903 | 0.718 | 0.0734 | 0.257 | 0.845 | 0.555 | 0.0242 | 0.148 | 0.0802 | 0.115 | 0.296 | 0.348 | 0.244
CS(=O)(=O)CCNCc1ccc(-c2ccc3ncnc(Nc4ccc(OCc5cccc(F)c5)c(Cl)c4)c3c2)o1 [Lapatinib] + C[C@@H](Oc1cc(-c2cnn(C3CCNCC3)c2)cnc1N)c1c(Cl)ccc(F)c1Cl [Crizotinib] (first compound max 10 µM, 7x7, partner max 10 µM) | 0.978 | 0.301 | 0.565 | 0.924 | 0.908 | 0.951 | 0.888 | 0.918 | 0.876 | 0.511 | 1 | 0.978 | 0.998 | 0.193 | 0.596 | 0.975 | 0.614 | 0.622 | 0.999 | 0.652
CC(=O)c1c(C)c2cnc(Nc3ccc(N4CCNCC4)cn3)nc2n(C2CCCC2)c1=O [Palbociclib] + CC1(C)CCC(CN2CCN(c3ccc(C(=O)NS(=O)(=O)c4ccc(NCC5CCOCC5)c([N+](=O)[O-])c4)c(Oc4cnc5[nH]ccc5c4)c3)CC2)=C(c2ccc(Cl)cc2)C1 [Venetoclax] (first compound max 10 µM, 7x7, partner max 1 µM) | 0.633 | 0.14 | 0.191 | 0.145 | 0.283 | 0.656 | 0.104 | 0.319 | 0.492 | 0.172 | 0.802 | 0.417 | 0.245 | 0.0998 | 0 | 0.431 | 0.132 | 0.142 | 0.378 | 0.0933
CC(=O)c1c(C)c2cnc(Nc3ccc(N4CCNCC4)cn3)nc2n(C2CCCC2)c1=O [Palbociclib] + Cc1c2c(nn1C)CSCc1cc(n(C)n1)CSc1cc(c3ccccc3c1)OCCCc1c(C(=O)O)n(C)c3c-2c(Cl)ccc13 [AZD5991] (first compound max 10 µM, 7x7, partner max 1 µM) | 0.633 | 0.148 | 0.576 | 0.35 | 0.398 | 0.899 | 0.25 | 0.435 | 0.501 | 0.887 | 0.802 | 0.417 | 0.696 | 0.269 | 0.285 | 0.732 | 0.203 | 0.355 | 0.626 | 0.916
CC(=O)c1c(C)c2cnc(Nc3ccc(N4CCNCC4)cn3)nc2n(C2CCCC2)c1=O [Palbociclib] + Cn1cnc2c(F)c(Nc3ccc(Br)cc3Cl)c(C(=O)NOCCO)cc21 [Selumetinib] (first compound max 10 µM, 7x7, partner max 10 µM) | 0.761 | 0.38 | 0.331 | 0.213 | 0.403 | 0.58 | 0.271 | 0.935 | 0.665 | 0.31 | 0.819 | 0.498 | 0.391 | 0.428 | 0.944 | 0.546 | 0.323 | 0.436 | 0.503 | 0.361
COc1cccc(OCCCN)c1-c1cc(Nc2cnc(C#N)cn2)n[nH]1 [Prexasertib] + C=CCn1c(=O)c2cnc(Nc3ccc(N4CCN(C)CC4)cc3)nc2n1-c1cccc(C(C)(C)O)n1 [AZD1775] (first compound max 1 µM, partner max 1 µM) | 0.942 | 0.481 | 0.938 | 0.716 | 0.848 | 0.723 | 0.763 | 0.858 | 0.974 | 0.807 | 0.905 | 0.797 | 0.882 | 0.388 | 0.808 | 0.991 | 0.765 | 0.991 | 1 | 0.839
COc1cccc(OCCCN)c1-c1cc(Nc2cnc(C#N)cn2)n[nH]1 [Prexasertib] + CCc1c2c(nc3ccc(O)cc13)-c1cc3c(c(=O)n1C2)COC(=O)[C@]3(O)CC [SN-38] (first compound max 1 µM, 7x7, partner max 0.3 µM) | 0.994 | 0.879 | 0.985 | 0.936 | 0.989 | 0.77 | 0.689 | 0.959 | 0.982 | 0.897 | 0.94 | 0.816 | 0.95 | 0.626 | 0.787 | 0.997 | 0.736 | 0.982 | 1 | 0.965
COc1cccc(OCCCN)c1-c1cc(Nc2cnc(C#N)cn2)n[nH]1 [Prexasertib] + CN(C)CCCOc1ccc(-c2ccc3ncc4c(c3c2)n(C2CCOCC2)c(=O)n4C)cn1 [AZD0156] (first compound max 1 µM, 7x7, partner max 1 µM) | 0.9 | 0.42 | 0.858 | 0.445 | 0.565 | 0.761 | 0.796 | 0.865 | 0.982 | 0.815 | 0.908 | 0.706 | 0.776 | 0.406 | 0.818 | 0.953 | 0.411 | 0.963 | 1 | 0.626
COc1cccc(OCCCN)c1-c1cc(Nc2cnc(C#N)cn2)n[nH]1 [Prexasertib] + C[C@@H]1COCCN1C2=NC(=NC(=C2)C3(CC3)[S@](=N)(=O)C)C4=C5C=CNC5=NC=C4 [AZD6738] (first compound max 1 µM, 7x7, partner max 10 µM) | 0.917 | 0.458 | 0.808 | 0.461 | 0.705 | 0.745 | 0.716 | 0.836 | 0.994 | 0.826 | 0.913 | 0.718 | 0.741 | 0.337 | 0.813 | 0.957 | 0.4 | 0.977 | 1 | 0.599
COc1cccc(OCCCN)c1-c1cc(Nc2cnc(C#N)cn2)n[nH]1 [Prexasertib] + Cc1cc2ncnn2cc1Nc1ncc2c(n1)n(C1CCOCC1)c(=O)n2C [AZD7648] (first compound max 1 µM, 7x7, partner max 10 µM) | 0.934 | 0.39 | 0.842 | 0.44 | 0.648 | 0.742 | 0.716 | 0.836 | 0.979 | 0.865 | 0.908 | 0.776 | 0.778 | 0.412 | 0.803 | 0.971 | 0.458 | 0.96 | 1 | 0.646
COc1cccc(OCCCN)c1-c1cc(Nc2cnc(C#N)cn2)n[nH]1 [Prexasertib] + O=C(c1cc(Cc2n[nH]c(=O)c3ccccc23)ccc1F)N1CCN(C(=O)C2CC2)CC1 [Olaparib] (first compound max 1 µM, 7x7, partner max 10 µM) | 0.897 | 0.378 | 0.749 | 0.573 | 0.694 | 0.764 | 0.689 | 0.886 | 0.83 | 0.811 | 0.858 | 0.668 | 0.782 | 0.368 | 0.7 | 0.974 | 0.442 | 0.952 | 1 | 0.799
COc1cc2c(cc1OCCCCCOc1cc3c(cc1OC)C(=O)N1C=C(C)C[C@H]1C=N3)N=C[C@@H]1CC(C)=CN1C2=O [SG3199] + O=C(c1cc(Cc2n[nH]c(=O)c3ccccc23)ccc1F)N1CCN(C(=O)C2CC2)CC1 [Olaparib] (first compound max 0.001 µM, 7x7, partner max 10 µM) | 0.259 | 0.181 | 0.166 | 0.175 | 0.0979 | 0.0839 | 0.0965 | 0.247 | 0.256 | 0.12 | 0.522 | 0.125 | 0.116 | 0.081 | 0.122 | 0.203 | 0.108 | 0.3 | 0.437 | 0.154
CCc1c2c(nc3ccc(O)cc13)-c1cc3c(c(=O)n1C2)COC(=O)[C@]3(O)CC [SN-38] + CN(C)CCCOc1ccc(-c2ccc3ncc4c(c3c2)n(C2CCOCC2)c(=O)n4C)cn1 [AZD0156] (first compound max 0.3 µM, 7x7, partner max 1 µM) | 0.994 | 0.564 | 0.913 | 0.857 | 0.844 | 0.633 | 0.181 | 0.828 | 0.811 | 0.243 | 0.861 | 0.697 | 0.965 | 0.448 | 0.635 | 0.933 | 0.208 | 0.772 | 1 | 0.81
